From PubChem BioAssay AID624285 (Broad Institute, 2012)
Active and inactive are the calls of the source.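 How the source made its calls: active means signal-decreasing dose-response curve whose fitted half-maximal concentration is at or below twice the highest valid tested dose; inconclusive means flat fit at 30 to 70% signal loss, or poor fit; inactive means the rest.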

Assay: cytotoxicity in mammalian cells, dose response, cytotoxicity control for PDI inhibitor project, cell-based, 24 h, luminescence, cherry-picked samples (AID 624285)
Details: NIH3T3/HeLa viability, CellTiter-Glo ATP luminescence, 24 h; at 35 µM (top of the series)

Compound | activity change, negative = cytotoxicity
Cc1c(O)ccc2c(CN3CCN(Cc4ccccc4)CC3)cc(=O)oc12 | -14.2% (inactive)
CC(C)N1CCCC(C)(C(=O)Nc2nc3ccccc3n2C)C1 (centres undefined) | -8.91% (inactive)
Cc1ccc(CN(c2ccc(C(=O)Nc3ccc4c(c3)OCO4)cc2)S(C)(=O)=O)cc1 | -9.66% (inactive)
O=C(NCc1cccs1)C1CC(c2ccc(F)cc2)=NO1 (centres undefined) | -16.4% (inactive)
O=C1CC(C(=O)N2CCc3ccccc32)CN1c1ccc(F)cc1 (centres undefined) | -10.7% (inactive)
O=C1NC(Cc2ccc(O)cc2)c2nc3ccccc3c(=O)n2-c2ncccc21 (centres undefined) | -7.17% (inactive)
CC1(C(=O)N2CCCCC2)CCN1C(=O)Cc1ccc(-c2ccccc2)cc1 (centres undefined) | -5.8% (inactive)
CCCNC(=O)Cn1c(-c2ccc(F)cc2)cc(C(=O)OCC)c1C | -18.9% (inactive)
CN(C)S(=O)(=O)c1ccc(Cl)c(NC(=O)CSc2nnnn2-c2ccc(O)cc2)c1 | -11.7% (inactive)
O=C(CNC(=O)c1n[nH]c2ccccc12)Nc1cc(Cl)ccc1Cl | -8.33% (inactive)
Cc1nc(C(=O)Nc2cccc(Cl)c2Cl)nn1-c1cc(OC(C)C)c(Cl)cc1Cl | -11.1% (inactive)
CCCc1cc(=O)[nH]c(SCCOc2ccc(OCC)cc2)n1 | -5.03% (inactive)
COC(=O)C(Cc1ccc(O)cc1)N1Cc2ccccc2C1=O (centres undefined) | -9.13% (inactive)
O=C(CCN1C(=O)C2C3C=CC(C4CC34)C2C1=O)Oc1ccccc1 (centres undefined) | -3.44% (inactive)
CCC(=O)N1CCc2cc(S(=O)(=O)CCC(=O)NCc3ccco3)ccc21 | -2.4% (inactive)
O=S(=O)(c1ccccc1)N1N=C(c2ccc(O)cc2)CC1c1ccco1 (centres undefined) | -18% (inactive)
O=c1c(O[C@H]2O[C@@H](CO)[C@H](O)[C@@H](O)[C@@H]2O)c(-c2ccc(O)cc2)oc2cc(O)cc(O)c12 | -3.13% (inactive)
Cc1nn(CC(=O)NCC2CCCO2)c(C)c1[N+](=O)[O-] (centres undefined) | -7.91% (inactive)
CC(=O)N(C)C1(c2nnnn2CCOC(=O)Nc2ccc(Cl)cc2)CCCCC1 | -9.52% (inactive)
CNc1ncnc2c1ncn2[C@H]1CN(Cc2cccc3ccccc23)C[C@@H](CO)O1 | -19.8% (inactive)
CCOC(=O)c1c(CN2CCN(Cc3ccccc3)CC2)n(C)c2cc(Br)c(OC)cc12 | -17.4% (inactive)
O=C(NC(=S)Nc1cccc(NC(=O)c2ccccc2)c1)c1cccc([N+](=O)[O-])c1 | -10.7% (inactive)
CCOc1ccc(/C=N/OC(C)C(=O)NCc2ccc3c(c2)OCO3)cc1 (centres undefined) | -5.51% (inactive)
OCCC1CN(Cc2cccn2-c2ccccn2)CCN1C1CCCCC1 (centres undefined) | -20.5% (inactive)
Cc1cc(Cl)ccc1OCc1n[nH]c(=S)n1C1CCCCC1 | -11% (inactive)
C[C@@H]1CN([C@H](C)CO)C(=O)Cc2cc(NC(=O)Nc3ccccc3)ccc2O[C@@H]1CN(C)Cc1ccccc1 | -3.74% (inactive)
CCOC(=O)CN(c1ccccc1)S(=O)(=O)c1ccc(F)cc1 | -10.3% (inactive)

Compound | activity change, negative = cytotoxicity
CCN1CC2(COC(=O)c3ccccc3N)CCC(OC)C34C5CC6C(OC)CC(O)(C5C6OC)C(O)(C(OC)C23)C14 (centres undefined) | -11.8% (inactive)
S=C(NCCN1CCOCC1)Nc1ccc(Br)cc1 | -9.3% (inactive)
C=CCNc1ncnc2c1ncn2[C@H]1CN(Cc2cccc3ccccc23)C[C@@H](CO)O1 | -8.26% (inactive)
O=C(c1ccc(NS(=O)(=O)c2ccccc2)cc1)N1CCOCC1 | -8.07% (inactive)
O=c1c(O[C@@H]2O[C@H](CO)[C@@H](O)[C@H](O)[C@H]2O)c(-c2ccc(O)cc2)oc2cc(O)cc(O)c12 | -2.51% (inactive)
COc1ccc(CCNC(=O)c2cc(S(=O)(=O)N(C)C)ccc2N2CCCC2)cc1 | -14.6% (inactive)
FC(F)(F)c1cccc(NC(=S)NCc2ccccn2)c1 | -2.29% (inactive)
O=C(NC(Cc1ccc(O)cc1)C(=O)N=Nc1c(O)[nH]c2ccccc12)c1ccccc1 (centres undefined) | -6.54% (inactive)
CC(=O)NC1(c2nnnn2CCOC(=O)Nc2ccc(Cl)cc2)CCCCC1 | 5.78% (inactive)
Cc1ccc(-c2cc(C(=O)NNC(=O)c3csc(N4CCOCC4)n3)c3ccccc3n2)cc1 | -13.2% (inactive)
C[C@H](CO)N1C[C@H](C)[C@@H](CN(C)S(=O)(=O)c2ccc(F)cc2)Oc2ccc(NC(=O)Cc3cn(C)c4ccccc34)cc2C1=O | -0.991% (inactive)
Cc1ccc2c(=O)n3c(nc2c1)C(Cc1ccc(O)cc1)NC(=O)c1cccnc1-3 (centres undefined) | -12.6% (inactive)
COc1ccccc1N1CCN(C(=O)C(=O)N/N=C/c2cccc(O)c2)CC1 | -8.29% (inactive)
CCS(=O)(=O)c1ccc2oc(SCC(=O)NC(C)C3CC4CCC3C4)nc2c1 (centres undefined) | -13.9% (inactive)
C[C@@H](CN1C2=NC[C@H](Cc3ccc(O)cc3)N2C[C@H]1Cc1ccc(O)cc1)NC(=O)CCC1CCCCC1 | -8.59% (inactive)
CCc1nc2ccc(C(=O)N(CC)CC(=O)Nc3c(F)cccc3F)cc2nc1CC | -5.83% (inactive)
Cc1cccc(NC(=S)NCC23C=CC(O2)C2C(=O)N(c4ccc(Cl)cc4)C(=O)C23)c1 (centres undefined) | -20.9% (inactive)
CCOC(=O)C(C)c1n[nH]c(=O)c2ccccc12 (centres undefined) | -6.39% (inactive)
CCOC(=O)c1ccc2c(c1)nc(SCC(=O)N1CCCCC1)n2CC | -10.4% (inactive)
CCCCC1CCC(c2nc(-c3ccccn3)no2)CC1 (centres undefined) | -12.5% (inactive)
CCOC(=O)c1oc2cccc(O)c2c1CN(Cc1ccccc1)C(C)=O | -17.2% (inactive)
CC[C@]12c3[nH]c4cc(-c5ccco5)ccc4c3CCN1C(=O)[C@@H](CC(=O)NCCCOC)C[C@@H]2C(=O)N1CCN(C(=O)c2ccco2)CC1 | -9.72% (inactive)
Cn1c(=O)n(CCCOc2ccc(Br)cc2)c2ccccc21 | -15.3% (inactive)
Cc1noc(C)c1S(=O)(=O)Nc1ccc2c(c1)CC(=O)N([C@H](C)CO)C[C@H](C)[C@H](CN(C)S(C)(=O)=O)O2 | 1.83% (inactive)
CC1(C(=O)NS(=O)(=O)c2ccccc2Cl)CCN1C(=O)c1ccccc1CCc1ccccc1 (centres undefined) | -8.92% (inactive)
O=C(Nc1cccc(S(=O)(=O)Nc2ccc(SC(F)F)cc2)c1)C1CCC1 | -13.1% (inactive)
CN(C)CCN(C(=O)c1ccc(S(=O)(=O)N2CCc3ccccc32)cc1)c1nc2ccc(F)cc2s1 | -13.9% (inactive)

Compound | activity change, negative = cytotoxicity
COCC(=O)NC1(c2nnnn2CCOC(=O)Nc2ccc(Cl)cc2)CCCCC1 | -7.94% (inactive)
CCC(=O)Nc1ccc(-c2cc3ccccc3oc2=O)cc1 | -7.54% (inactive)
CC(NCC(O)COCc1ccc(Cl)cc1)c1ccccc1 (centres undefined) | -15.3% (inactive)
CC(C)c1ccc(Nc2nc(CC(=O)O)cs2)cc1 | -4.01% (inactive)
Cc1c(O)ccc2c(CN3CCN(CCO)CC3)cc(=O)oc12 | -7.06% (inactive)
CCC1Nc2ncnc(N3CCCCC3)c2N(Cc2ccc(C)cc2)C1=O (centres undefined) | -16.7% (inactive)
CC1CC(C)CN(C(=O)COC(=O)c2ccc[nH]c2=O)C1 (centres undefined) | -4.68% (inactive)
CC[C@]12c3[nH]c4cc(-c5ccco5)ccc4c3CCN1C(=O)[C@@H](CC(=O)NCCCOC)C[C@@H]2C(=O)N1CCN(C(=O)C2CC2)CC1 | -8.63% (inactive)
C[C@H](CO)N1C[C@H](C)[C@@H](CN(C)S(=O)(=O)c2ccc(F)cc2)Oc2ccc(NC(=O)Cc3ccccc3)cc2C1=O | -14.6% (inactive)
N#Cc1ccccc1CSc1nnc(Cc2ccccc2)o1 | -7.32% (inactive)
O=C1CCC(=O)N1c1nc2nc(-c3ccccc3)cc(-c3ccccc3)n2n1 | -9.12% (inactive)
CC(C)N(C)C(=O)CCc1nnc(CCc2c[nH]c3ccccc23)o1 | -10.2% (inactive)
CC(=O)N1CCC(C(=O)NCCOc2cccc(C)c2)CC1 | -15.7% (inactive)
Cc1cc(NC(=O)COC(=O)C2CC(=O)N(c3ccccc3)C2)no1 (centres undefined) | -2.55% (inactive)
Cc1ccc(-n2ncc3c(=O)[nH]c(SCC(=O)N4CCCc5ccccc54)nc32)cc1 | -1.87% (inactive)
CN(C)c1ccc(C2(O)C(=O)c3ccccc3C2=O)cc1 | -6.27% (inactive)
CCCCNC(=O)Nc1ccon1 | -6.29% (inactive)
COc1ccc(CN(C)C[C@@H]2Oc3c(NS(C)(=O)=O)cccc3C(=O)N([C@H](C)CO)C[C@H]2C)cc1 | 2.2% (inactive)
Cc1ccc2nc(N3CCN(Cc4nnnn4C4CCCC4)CC3)c(C#N)cc2c1 | -9.95% (inactive)
C[C@@H]1CN([C@@H](C)CO)C(=O)c2cccc(NS(C)(=O)=O)c2O[C@@H]1CN(C)Cc1ccc(Oc2ccccc2)cc1 | -5.95% (inactive)
Cc1ccc(N2CC(C(=O)N3CCCCCC3)CC2=O)cc1 (centres undefined) | -7.03% (inactive)
CCN(CC)CCNC(=O)C(C(=O)c1ccccc1)n1ccccc1=O (centres undefined) | -1.54% (inactive)
CC1(C(=O)Nc2ccc3c(c2)OCCO3)CCN1C(=O)C1(c2ccc(Cl)cc2)CC1 (centres undefined) | -11.6% (inactive)
NC(=O)c1nsc(C(=O)N(CC(=O)NCc2ccc(F)cc2)Cc2ccco2)c1N | -24.6% (inactive)
O=C(CN1C(=O)NC2(CCCC2)C1=O)Nc1ccc(C(F)(F)F)cc1 | -9.2% (inactive)
